One data set deals with Pr. rettgeri. Kind of data set: MIC by Steers' agar dilution method. As to conditions: Providencia rettgeri, MHA; Example 10. A general note: In agar dilution, organisms are placed on agar that contains the substance at set levels.
A further data set has as its system Pr. mirabilis. As to the kind of experiment: MIC by Steers' agar dilution method. The conditions noted are these: Proteus mirabilis, MHA, Example 10.
For another data set, the system named is Pr. morganii. Kind of data set: MIC by Steers' agar dilution method. The conditions noted are these: Morganella morganii, MHA, Example 10.
Another data set deals with Ps. aeruginosa. Kind of data set: MIC by Steers' agar dilution method. As to conditions: Pseudomonas aeruginosa, MHA, Example 10.
The next data set concerns E. coli. Kind of data set: MIC by Steers' agar dilution method. The conditions noted are these: Escherichia coli, MHA, Example 10. In kind it is cell-based.
For another data set, the system named is Shig. dysenteriae. Kind of data set: MIC by Steers' agar dilution method. The conditions noted are these: Shigella dysenteriae, MHA; Example 10.
For the next data set, the system named is Enterob. cloacae. As to the kind of experiment: MIC by Steers' agar dilution method. As to conditions: MHA; Example 10.
In another data set the test system is Shig. sonnei. Kind of data set: MIC by Steers' agar dilution method. The class given is cell-based. As to conditions: Shigella sonnei, MHA; Example 10.
The next data set has as its system Pr. vulgaris. Kind of data set: MIC by Steers' agar dilution method. As to conditions: Proteus vulgaris, MHA, Example 10.
The subject of the next data set is S. aureus. As to the kind of experiment: MIC by Steers' agar dilution method. As to conditions: Staphylococcus aureus, MHA, Example 10. The class given is cell-based.
The test system of another data set is Sal. enteritidis. As to the kind of experiment: MIC by Steers' agar dilution method. As to conditions: Salmonella enterica, MHA, Example 10.
The subject of a further data set is Shig. flexneri. As to the kind of experiment: MIC by Steers' agar dilution method. The class given is cell-based. As to conditions: Shigella flexneri, MHA; Example 10.
The subject of a further data set is St. faecalis. As to the kind of experiment: MIC by Steers' agar dilution method. The conditions noted are these: Enterococcus faecalis, MHA; Example 10.
A further data set relates to B. anthracis. Kind of data set: microbe, parasite or virus in culture. In kind it is cell-based. The conditions noted are these: Bacillus anthracis, MHA; Example 10.
The test system of another data set is Serr. marcescens. Kind of data set: MIC by Steers' agar dilution method. As to conditions: Serratia marcescens, MHA; Example 10.
The next data set concerns Kl. pneumoniae. Kind of data set: MIC by Steers' agar dilution method. The conditions noted are these: Klebsiella pneumoniae, MHA, Example 10. In kind it is cell-based.
A further data set relates to Sal. typhosa. As to the kind of experiment: MIC by Steers' agar dilution method. The class given is cell-based. As to conditions: MHA; Example 10.
Data set [1] in a line: pH of aqueous solution of the salt. The class given is physicochemical.
The nature of data set [2]: Nephrotoxicity test in rabbits. The conditions noted are these: comparative test.

Converted amounts (≈) assume the structure as drawn. Where two headings read alike, the source gives them in different places. A value given as a limit tells only on which side of the number the result lay.

For `O=C(O)CCn1nc2ccc(SCC3=C(C(=O)O)N4C(=O)C(NC(=O)[C@H](O)c5ccccc5)[C@H]4SC3)nn2c1=O` (single isomer, unassigned) [BB-S 527, 7-[D(-)-Mandelamido]-3-[2-(2-carboxyethyl)-2,3-dihydro-s-triazolo-[4,3-b]pyridazin-3-on-6-ylthiomethyl]-3-cephem-4-carboxylic acid], the MIC is 0.2 µg/mL (≈ 0.341 µM) in the data set with Pr. rettgeri; 0.2 µg/mL (≈ 0.341 µM) against Pr. mirabilis (strain not given (1st of 2)); 0.1 µg/mL (≈ 0.17 µM) with Pr. mirabilis (strain not named (2nd of 2)); over 100 µg/mL against Pr. morganii (strain not given (1st of 2)); 0.4 µg/mL (≈ 0.682 µM) in the data set with Pr. morganii (strain not named (2nd of 2)); over 100 µg/mL in the data set on Ps. aeruginosa (strain not given (1st of 2)). Also, the MIC in the data set on Ps. aeruginosa (strain not named (2nd of 2)) is over 100 µg/mL; in the data set with E. coli (ATCC8739, ATCC 8739), 12.5 µg/mL (≈ 21.3 µM); with E. coli (BX-1373, read-out: MIC), 6.3 µg/mL (≈ 10.7 µM); in the data set with E. coli (Juhl, read-out: MIC), 0.4 µg/mL (≈ 0.682 µM); in the data set with E. coli (NIHJ, read-out: MIC), 0.4 µg/mL (≈ 0.682 µM); in the data set with E. coli (strain not named (1st of 3), read-out: MIC), 0.1 µg/mL (≈ 0.17 µM). Also, the MIC in the data set on E. coli (strain not named (2nd of 3), read-out: MIC) was found to be 0.1 µg/mL (≈ 0.17 µM); with E. coli (strain not named (3rd of 3), read-out: MIC), 6.3 µg/mL (≈ 10.7 µM); in the data set with Shig. dysenteriae it was 0.025 µg/mL (≈ 0.0426 µM); against Enterob. cloacae, 6.3 µg/mL (≈ 10.7 µM); against Shig. sonnei it was 0.1 µg/mL (≈ 0.17 µM); against Pr. vulgaris (strain not given (1st of 2)), 0.1 µg/mL (≈ 0.17 µM). The MIC with Pr. vulgaris (strain not named (2nd of 2)) was determined as 12.5 µg/mL (≈ 21.3 µM); with S. aureus (BX-1633), 3.1 µg/mL (≈ 5.28 µM); in the data set on S. aureus (Smith), 1.6 µg/mL (≈ 2.73 µM); in the data set with S. aureus (strain not named), 0.4 µg/mL (≈ 0.682 µM); against Sal. enteritidis, 0.05 µg/mL (≈ 0.0852 µM); in the data set with Shig. flexneri it was 50 µg/mL (≈ 85.2 µM). Besides, the MIC is over 100 µg/mL against St. faecalis; 0.4 µg/mL (≈ 0.682 µM) with B. anthracis; over 100 µg/mL with Serr. marcescens; 6.3 µg/mL (≈ 10.7 µM) against Kl. pneumoniae (strain not named (1st of 4)); 0.2 µg/mL (≈ 0.341 µM) in the data set on Kl. pneumoniae (strain not named (2nd of 4)); 0.8 µg/mL (≈ 1.36 µM) with Kl. pneumoniae (strain not named (3rd of 4)). The MIC with Kl. pneumoniae (strain not named (4th of 4)) was 0.4 µg/mL (≈ 0.682 µM); with Sal. typhosa it was 0.1 µg/mL (≈ 0.17 µM).
Take `O=C(O)Cn1nc2ccc(SCC3=C(C(=O)O)N4C(=O)C(NC(=O)[C@H](O)c5ccccc5)C4SC3)nn2c1=O` (stereo partly drawn) [Example 6, disodium 7-(D-mandelamido)-3-(2-carboxymethyl-2,3-dihydro-s-triazolo[4,3-b]pyridazin-3-on-6-ylthiomethyl)-3-cephem-4-carboxylylate]: the “pH of the aqueous solution” value in data set [1] (5% aqueous solution) is listed as 5.4.
Regarding `O=C(O)Cn1nc2ccc(SCC3=C(C(=O)[O-])N4C(=O)C(NC(=O)[C@H](O)c5ccccc5)[C@H]4SC3)nn2c1=O.[Na+]` (stereo partly drawn) [Sodium Salt of BB-S488, sodium 7-(D-mandelamido)-3-(2-carboxymethyl-2,3-dihydro-s-triazolo[4,3-b]pyridazin-3-on-6-ylthiomethyl)-3-cephem-4-carboxylate], the “pH of the aqueous solution” value in [1] (10% aqueous solution) worked out at 3.6.
In the case of `O=C(Cc1cccs1)N[C@@H]1C(=O)N2C(C(=O)[O-])=C(C[n+]3ccccc3)CS[C@H]12` [cephaloridine, reference compound], the Nephrotoxicity entry in data set [2] is given as “severe nephrotoxicity”.

(Values after patent publication US4112228A, “7-(D-α-Hydroxy-2-arylacetamido)-3-(2-carboxyalkyl-2,3-dihydro-s-tri azolo-[4,3-b]pyridazin-3-on-6-ylthiomethyl)-3-cephem-4-carboxylic acids and derivatives” (priority 1977, dated 1978).)
